Results taken from patent publication US12162858B2, “Quinoline derivatives as inhibitors of AXL/MER RTK and CSF1R” (QURIENT CO., LTD., priority 2018, dated 2024).

Columns and labels:
CSF1R (M-NFS-60 cells) = test: Cell Titer-Glo viability assay using M-NFS-60 cells; format: cell-based; settings: Mus musculus, read-out: Cellular CSF1R activity by M-NFS-60 viability assay (IC50 activity range)
Procedure: M-NFS-60 cells were cultured in RPMI-1640 medium containing 10% FBS, 0.05 mM 2-Mercaptoethanol, penicillin (100 U/ml)/streptomycin ([…]) and supplemented with 62 ng/ml recombinant human M-CSF at 37° C./5% CO2. Aliquots of the cells were seeded into a 96-well plate (2×10^5 cells in 100 μl/well) and then incubated at 37° C./5% CO2 1 h. Dissolve compound in 100% DMSO to make 10 mM stock solutions (Aliquots stored in the Nitrogen Cabinet). Dilute 10 mM compounds solutions for 2-fold in 100% DMSO to get 5 mM solutions (10 μl+10 μl DMSO), and then make a 3-fold serial dilution (10 μl+20 μl DMSO) for 10 doses. For reference compounds: Dilute 10 mM compounds solutions for 20-fold in 100% DMSO to get 0.5 mM solutions (2 μl+38 μl DMSO), and then make a 3-fold serial dilution (10 μl+20 μl DMSO) for 8 doses. The 96-well plate was equilibrated at room temperature for 30 min. 50 μl of CellTiter-Glo® Reagent added to each well and mixed for 2 min on an orbital shaker to induce cell lysis. The 96-well plate was incubated at room temperature for 10 min to stabilize luminescent signal. Luminescent was measured […] by EnVison plate reader. Calculations and Formulas: The following calculations and formulas are used for data analysis using XL Fit software: The curve fitting was made using the Sigmoidal Dose-Response Model (Fit model, 205).

Axl = target: T1, Axl (Homo sapiens, UniProt P30530); test: Cellular Axl inhibition ELISA (p-Axl, Gas6-induced) using H1299 cells; format: cell-based; set-up: especially H1299 cell endogenously expresses Axl; endogenous in cells; host or cells: H1299; settings: read-out: Cellular Axl activity by H1299 Elisa (IC50)
T1 sequence (P30530 26-894): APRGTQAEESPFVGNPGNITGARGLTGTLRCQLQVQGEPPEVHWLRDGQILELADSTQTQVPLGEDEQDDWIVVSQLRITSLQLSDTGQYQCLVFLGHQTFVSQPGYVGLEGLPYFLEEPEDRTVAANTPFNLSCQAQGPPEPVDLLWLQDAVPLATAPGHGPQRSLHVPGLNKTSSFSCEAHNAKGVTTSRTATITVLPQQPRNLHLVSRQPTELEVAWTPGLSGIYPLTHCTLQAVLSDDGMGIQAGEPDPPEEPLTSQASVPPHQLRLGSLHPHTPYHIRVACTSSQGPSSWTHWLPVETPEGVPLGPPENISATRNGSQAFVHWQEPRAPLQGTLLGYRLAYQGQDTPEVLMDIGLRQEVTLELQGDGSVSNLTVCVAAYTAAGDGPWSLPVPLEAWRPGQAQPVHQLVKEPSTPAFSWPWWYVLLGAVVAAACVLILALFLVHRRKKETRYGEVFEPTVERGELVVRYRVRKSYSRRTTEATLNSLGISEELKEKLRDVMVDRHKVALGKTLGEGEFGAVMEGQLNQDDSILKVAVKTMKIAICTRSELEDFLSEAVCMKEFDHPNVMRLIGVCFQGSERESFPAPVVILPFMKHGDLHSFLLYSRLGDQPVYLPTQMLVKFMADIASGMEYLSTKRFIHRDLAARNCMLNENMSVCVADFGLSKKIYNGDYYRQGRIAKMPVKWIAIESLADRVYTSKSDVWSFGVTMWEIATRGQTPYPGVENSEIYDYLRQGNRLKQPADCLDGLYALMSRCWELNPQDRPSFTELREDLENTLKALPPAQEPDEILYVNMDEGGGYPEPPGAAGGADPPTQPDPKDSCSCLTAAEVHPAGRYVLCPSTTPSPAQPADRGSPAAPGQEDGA
Procedure: Axl is expressed in several of malignant cancer cells; especially H1299 cell endogenously expresses Axl; and an increased phosphorylation of Axl (p-Axl) can be observed, when induced by the Axl ligand, Ga6.
The H1299 cells should be 40-80% confluent in the cell culture flask. Then cells are washed with DPBS and trypsinized. After centrifugation, the cell pellet is re-suspended with pre-warmed culture medium (RPMI1640, 10% FBS) and cells are separated by pipetting 6 times up and down with a 10 ml serological pipette. The cell suspension was diluted to a final concentration of 1.25×10^5 cells/ml. Then 80 μl/well cell suspension is added to the plate. Cell-plates are incubated at 37° C./5% CO2 overnight. Compounds were dissolved by DMSO to 10 mM, and kept in nitrogen cabinet. Prepare the compounds stock plate, the reference compounds concentration starts at 0.50 mM (5 μl+95 μl DMSO), and the tested compounds start at 1.5 mM (6 μl+34 μl DMSO); Then make a 3-fold dilution series (10 doses) compounds. Then dilute compounds by the medium in the mid plate (2 μl compounds+198 μl medium). Transfer 20 μl diluted compounds from mid plate to the cell coated plate. Cell-plates are incubated at 37° C./5% CO2 for 24 h. Add 25 μl of Human Gas6 (1000 ng/ml) to 96-well plate; the final concentration of Human Gas6 is 200 ng/ml. Incubate the plates at 37° C./5% CO2 for 1 h. Remove medium and wash cells once with 300 ul/well ice-cold 1×PBS. Then remove PBS and add 100 μl/well ice-cold 1× Cell Lysis Buffer to 96-well plate. The plate is shaken for 40 min at 4° C. Then plates can be stored at −20° C. After the micro-wells strips have reached room temperature, break off the required number of micro-wells. Place the micro-wells in the strip holder. Unused micro-wells must be resealed and stored at 4° C. immediately. Add 60 μl of cell lysate to the appropriate well. Seal with tape and press firmly onto top of micro-wells. Incubate the plate at 37° C. for 2 h. Gently remove the tape and wash wells 5 times with 1× Wash Buffer, 300 μl each time for each well. Add 100 μl of reconstituted Detection Antibody (green color) to each well. Seal with tape and incubate the plate at 37° C. for 1 h. Repeat wash procedure. Add 100 μl of reconstituted HRP Linked secondary antibody to each well. Seal with tape and incubate the plate at 37° C. for 30 min. Repeat wash procedure. Add 100 μl of TMB Substrate to each well. Seal with tape and incubate the plate at 37° C. for 15 min. Add 100 μl of STOP Solution to each well. Shake gently for a few seconds. Read absorbance at 450 nm within 30 min after adding STOP Solution. Calculations and Formulas: The following calculations and formulas are used for data analysis using XL Fit software: The curve fitting was made using the Sigmoidal Dose-Response Model (Fit model, 205).

## CCCn1cc(OCC(F)(F)F)c(C(=O)Nc2ccc(Oc3ccnc4cc(OC)c(OC)cc34)c(C(F)(F)F)c2)n1 [Compound 114]
CSF1R (M-NFS-60 cells)
  IC50: 1000 to 10000 nM
Axl
  IC50: < 500 nM

## COc1cc2nccc(Oc3ccc(NC(=O)c4nn(CCOC5CC5)cc4OCC(F)(F)F)c(F)c3)c2cc1OC [Compound 115]
CSF1R (M-NFS-60 cells)
  IC50: 1000 to 10000 nM
Axl
  IC50: < 500 nM

## COc1cc2nccc(Oc3ccc(NC(=O)c4nn(CCOC5CC5)cc4OCC(F)(F)F)cc3F)c2cc1OC [Compound 116]
CSF1R (M-NFS-60 cells)
  IC50: 1000 to 10000 nM
Axl
  IC50: < 500 nM

## COc1cc2nccc(Oc3ccc(NC(=O)c4nn(CCOC5CC5)cc4OCC(F)(F)F)cc3C)c2cc1OC [Compound 117]
CSF1R (M-NFS-60 cells)
  IC50: < 1000 nM
Axl
  IC50: 500 to 1000 nM

## COc1cc2nccc(Oc3ccc(NC(=O)c4nn(CCOC5CC5)cc4OCC(F)(F)F)cc3)c2cc1OC [Compound 118]
CSF1R (M-NFS-60 cells)
  IC50: 1000 to 10000 nM
Axl
  IC50: < 500 nM

## CNCCn1cc(OCC(F)(F)F)c(C(=O)Nc2ccc(Oc3ccnc4cc(OC)c(OC)cc34)cc2)n1 [Compound 119]
CSF1R (M-NFS-60 cells)
  IC50: 1000 to 10000 nM
Axl
  IC50: ≥ 1000 nM

## COc1cc2nccc(Oc3ccc(NC(=O)c4nn(CCOC5CC5)cc4OCC(F)(F)F)nn3)c2cc1OC [Compound 120]
CSF1R (M-NFS-60 cells)
  IC50: 1000 to 10000 nM
Axl
  IC50: 500 to 1000 nM

## COc1cc2nccc(Oc3ccc(NC(=O)c4nn(C5CCCC5)cc4OCC(F)(F)F)nn3)c2cc1OC [Compound 121]
CSF1R (M-NFS-60 cells)
  IC50: < 1000 nM
Axl
  IC50: < 500 nM

## COc1cc2nccc(Oc3ccc(NC(=O)c4nn(C5CCNC5)cc4OCC(F)(F)F)nn3)c2cc1OC (stereo not shown) [Compound 122]
CSF1R (M-NFS-60 cells)
  IC50: 1000 to 10000 nM
Axl
  IC50: ≥ 1000 nM

## COc1cc2nccc(Oc3ccc(NC(=O)c4nn(CC5COC5)cc4OCC(F)(F)F)nn3)c2cc1OC [Compound 123]
CSF1R (M-NFS-60 cells)
  IC50: 1000 to 10000 nM
Axl
  IC50: < 500 nM

## COc1cc2nccc(Oc3ccc(NC(=O)c4nn(CC(C)C)cc4OCC(F)(F)F)nn3)c2cc1OC [Compound 124]
CSF1R (M-NFS-60 cells)
  IC50: 1000 to 10000 nM
Axl
  IC50: < 500 nM

## COc1cc2nccc(Oc3ccc(NC(=O)c4nn(CCN)cc4OCC(F)(F)F)nn3)c2cc1OC [Compound 125]
CSF1R (M-NFS-60 cells)
  IC50: ≥ 10000 nM
Axl
  IC50: ≥ 1000 nM

## COCCn1cc(OCC(F)(F)F)c(C(=O)Nc2ccc(Oc3ccnc4cc(OC)c(OC)cc34)nn2)n1 [Compound 126]
CSF1R (M-NFS-60 cells)
  IC50: 1000 to 10000 nM
Axl
  IC50: < 500 nM

## CNCCn1cc(OCC(F)(F)F)c(C(=O)Nc2ccc(Oc3ccnc4cc(OC)c(OC)cc34)nn2)n1 [Compound 127]
CSF1R (M-NFS-60 cells)
  IC50: ≥ 10000 nM
Axl
  IC50: ≥ 1000 nM

## COc1cc2nccc(Oc3ccc(NC(=O)c4nn(C5CCOC5)cc4OCC(F)(F)F)nn3)c2cc1OC (stereo not shown) [Compound 128]
CSF1R (M-NFS-60 cells)
  IC50: 1000 to 10000 nM
Axl
  IC50: < 500 nM

## COc1cc2nccc(Oc3ccc(NC(=O)c4nn(CCO)cc4OCC(F)(F)F)cn3)c2cc1OC [Compound 129]
CSF1R (M-NFS-60 cells)
  IC50: ≥ 10000 nM
Axl
  IC50: ≥ 1000 nM

## COc1cc2nccc(Oc3ccc(NC(=O)c4nn(CCOC5CC5)cc4OCC(F)(F)F)cn3)c2cc1OC [Compound 130]
CSF1R (M-NFS-60 cells)
  IC50: 1000 to 10000 nM
Axl
  IC50: ≥ 1000 nM

## COc1cc2nccc(Oc3ccc(NC(=O)c4nn(C5CCCC5)cc4OCC(F)(F)F)cn3)c2cc1OC [Compound 131]
CSF1R (M-NFS-60 cells)
  IC50: 1000 to 10000 nM
Axl
  IC50: < 500 nM

## COc1cc2nccc(Oc3ccc(NC(=O)c4nn(C5CCNC5)cc4OCC(F)(F)F)cn3)c2cc1OC (stereo not shown) [Compound 132]
CSF1R (M-NFS-60 cells)
  IC50: ≥ 10000 nM
Axl
  IC50: ≥ 1000 nM

## COc1cc2nccc(Oc3ccc(NC(=O)c4nn(C5CCN(C)C5)cc4OCC(F)(F)F)cn3)c2cc1OC (stereo not shown) [Compound 133]
CSF1R (M-NFS-60 cells)
  IC50: 1000 to 10000 nM
Axl
  IC50: ≥ 1000 nM

## COc1cc2nccc(Oc3ccc(NC(=O)c4nn(CC5COC5)cc4OCC(F)(F)F)cn3)c2cc1OC [Compound 134]
CSF1R (M-NFS-60 cells)
  IC50: ≥ 10000 nM
Axl
  IC50: < 500 nM

## COc1cc2nccc(Oc3ccc(NC(=O)c4nn(CCN)cc4OCC(F)(F)F)cn3)c2cc1OC [Compound 135]
CSF1R (M-NFS-60 cells)
  IC50: ≥ 10000 nM
Axl
  IC50: ≥ 1000 nM

## COc1cc2nccc(Oc3ccc(NC(=O)c4nn(CC(C)O)cc4OCC(F)(F)F)cn3)c2cc1OC (stereo not shown) [Compound 136]
CSF1R (M-NFS-60 cells)
  IC50: 1000 to 10000 nM
Axl
  IC50: ≥ 1000 nM

## CNCCn1cc(OCC(F)(F)F)c(C(=O)Nc2ccc(Oc3ccnc4cc(OC)c(OC)cc34)nc2)n1 [Compound 137]
CSF1R (M-NFS-60 cells)
  IC50: 1000 to 10000 nM
Axl
  IC50: ≥ 1000 nM

## COc1cc2nccc(Oc3ccc(NC(=O)c4nn(C5CCOC5)cc4OCC(F)(F)F)cn3)c2cc1OC (stereo not shown) [Compound 138]
CSF1R (M-NFS-60 cells)
  IC50: 1000 to 10000 nM
Axl
  IC50: < 500 nM

## CCCn1cc(OCC(F)(F)F)c(C(=O)Nc2ccc(Oc3ccnc4cc(OC)c(OC)cc34)nc2)n1 [Compound 139]
CSF1R (M-NFS-60 cells)
  IC50: 1000 to 10000 nM
Axl
  IC50: < 500 nM

## CCCn1cc(OCCNC)c(C(=O)Nc2ccc(Oc3ccnc4cc(OC)c(OC)cc34)cn2)n1 [Compound 140]
CSF1R (M-NFS-60 cells)
  IC50: 1000 to 10000 nM
Axl
  IC50: ≥ 1000 nM

## CNCCOc1cn(C2CC2)nc1C(=O)Nc1ccc(Oc2ccnc3cc(OC)c(OC)cc23)cn1 [Compound 141]
CSF1R (M-NFS-60 cells)
  IC50: ≥ 10000 nM
Axl
  IC50: ≥ 1000 nM

## COc1cc2nccc(Oc3ccc(NC(=O)c4nn(C5CC5)cc4NCCC(F)(F)F)nc3)c2cc1OC [Compound 142]
CSF1R (M-NFS-60 cells)
  IC50: 1000 to 10000 nM
Axl
  IC50: < 500 nM
